Each compound was assayed against BCL-2 (Homo sapiens (Human), UniProt P10415) (assay: Protein-protein interaction assay BCL-2/Bad BH3 peptide (BCL-2 assay), TR-FRET). Conditions: BCL-2/Bad BH3 peptide TR-FRET; median.
Type: binding
Protocol: Assay 3 Protein-Protein Interaction assay: BCL-2/Bad BH3 Peptide (BCL-2 Assay)
The dose-dependent inhibition by the compounds described in this invention of the interaction between BCL-2 and the BH3 domain of Bad (both human) was determined using a steady state binding competition assay with time-resolved fluorescence energy transfer (TR-FRET) readout. For that purpose BCL-2 (amino acids 1-211, C-terminal fused to a hexahistidine (6× His) tag (SEQ ID 5) and a synthetic Bad BH3-derived peptide of sequence Biotin-PEG2-PEG2-NLWAAQRYGRELRR-Nle-SDEFVDSFKK-amide (SEQ ID 4) served as protein receptor and tracer ligand respectively. The recombinant BCL-2 protein (expressed in E. coli) was purchased from BPS Bioscience (San Diego, Calif., USA). The Bad BH3-derived peptide can be obtained from e.g. Biosyntan (Berlin, Germany).
In the assay 11 different concentrations of each compound (0.1 nM, 0.33 nM, 1.1 nM, 3.8 nM, 13 nM, 44 nM, 0.15 μM, 0.51 μM, 1.7 μM, 5.9 μM and 20 μM) were typically measured as duplicates in the same microtiter plate. For that, 100-fold concentrated DMSO solutions were prepared by serial dilutions (1:3.4) of a 2 mM stock solution in a clear, 384-well microtiter plate (Greiner Bio-One, Frickenhausen, Germany). From there, 50 nl were transferred in a dark test plate (Greiner Bio-One, Frickenhausen, Germany). The assay was initiated by addition of 2 μl of a 2,5-fold concentrated His-BCL-2 solution (usually for a 1 nM end concentration in 5 μl reaction volume) in aqueous assay buffer [50 mM Tris/HCl pH 7, 100 mM sodium chloride (NaCl), 50 mM potassium fluoride (KF), 0.005% Tween-20, 2 mM DTT, 0.1% bovine gamma globulin (BGG)] to the compounds in the assay plate. This was followed by a 10-minute incubation step at 22° C. for pre-equilibration of the putative complex between His-BCL-2 and the compounds. After that, 3 μl of a 1.67-fold concentrated solution (in assay buffer) consisting of Bad BH3-derived peptide (1 nM end concentration) and TR-FRET detection reagents [1.67 nM anti-His-Eu cryptate and 1.67 nM streptavidin-XL665 (both from Cisbio Bioassays, Codolet, France)], were added.
The mixture was incubated in the dark for one hour at 22° C. and then overnight at 4° C. The formation of BCL-2/Bad complexes was determined by measuring the resonance energy transfer of the anti-His-Eu-cryptate antibody to the streptavidin-XL665 present in the reaction. For that purpose, the fluorescence emission at 620 nm and 665 nm after excitation at 330-350 nm was measured in a TR-FRET measuring instrument, for instance a Rubystar or a Pherastar (both from BMG Lab Technologies, Offenburg, Germany) or a Viewlux (Perkin-Elmer). The ratio of the emission at 665 nm and at 622 nm was used as indicator of the amount of BCL-2/Bad complexes present.
The resulting data (ratio) were normalized, taking 0% inhibition as the mean value of control measurements (usually 32 data points) where all reagents were included. In this case 50 nl DMSO were used instead of compounds. A 100% inhibition corresponded to the mean value of control measurements (usually 32 data points) where all reagents except BCL-2 were included. IC50 values were determined by regression analysis based on a 4 parameter equation (minimum, maximum, IC50, Hill; Y=Max+(Min−Max)/(1+(X/IC50)^Hill) using the Screener Software (Genedata).

Sequence of BCL-2 (P10415 1-211): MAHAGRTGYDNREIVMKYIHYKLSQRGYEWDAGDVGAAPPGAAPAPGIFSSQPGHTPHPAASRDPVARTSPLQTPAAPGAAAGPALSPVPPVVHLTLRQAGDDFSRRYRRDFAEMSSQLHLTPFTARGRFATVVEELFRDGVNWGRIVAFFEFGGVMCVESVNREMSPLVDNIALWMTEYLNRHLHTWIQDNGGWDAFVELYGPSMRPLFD

Compound | IC50 [µM]
Cc1c2c(nn1C)COCCCCn1c(C(=O)O)c(CCCOc3ccc(F)c4ccccc34)c3ccc(F)c-2c31 (racemic) [Example 15, (rac)-13-fluoro-1-(3-((4-fluoronaphthalen-1-yl)oxy)propyl)-11,12-dimethyl-4,5,6,7,9,11-hexahydropyrazolo[4′,3′:9,10][1]oxa[6]azacycloundecino[8,7,6-hi]indole-2-carboxylic acid] | > 20
Cc1nn(C)c2c1-c1c(F)ccc3c(CCCOc4cccc5ccccc45)c(C(=O)O)n(c13)C/C=C\COC2 (racemic) [Example 9, (rac)-(Z)-13-fluoro-10,12-dimethyl-1-(3-(naphthalen-1-yloxy)propyl)-4,7,9,10-tetrahydro-pyrazolo[4′,3′:9,10][1]oxa[6]azacycloundecino[8,7,6-hi]indole-2-carboxylic acid] | > 20
CCc1c2c(nn1C)COC/C=C\Cn1c(C(=O)O)c(CCCOc3cccc4ccccc34)c3ccc(F)c-2c31 (racemic) [Example 5, (rac)-(11Z)-3-ethyl-4-fluoro-2-methyl-7-[3-(naphthalen-1-yloxy)propyl]-2,10,13,15-tetrahydro-pyrazolo[4′,3′:9,10][1,6]oxazacycloundecino[8,7,6-hi]indole-8-carboxylic acid] | > 20
Cc1c2c(nn1C)COC/C=C\Cn1c(C(=O)O)c(CCCOc3cccc4ccccc34)c3ccc(F)c-2c31 (racemic) [Example 1, (rac)-(11Z)-4-fluoro-2,3-dimethyl-7-[3-(naphthalen-1-yloxy)propyl]-2,10,13,15-tetrahydro-pyrazolo[4′,3′:9,10][1,6]oxazacycloundecino[8,7,6-hi]indole-8-carboxylic acid] | > 20

Now from value to compound:

IC50 [µM] | Compound
> 20 | CCc1c2c(nn1C)COCCCCn1c(C(=O)O)c(CCCOc3cc(C)c(Cl)c(C)c3)c3ccc(F)c-2c31 (racemic) [Example 31, (rac)-1-(3-(4-chloro-3,5-dimethylphenoxy)propyl)-12-ethyl-13-fluoro-11-methyl-4,5,6,7,9,11-hexahydropyrazolo[4′,3′:9,10][1]oxa[6]azacycloundecino[8,7,6-hi]indole-2-carboxylic acid]
> 20 | CCc1nn(C)c2c1-c1c(F)ccc3c(CCCOc4cccc5c4CCC5)c(C(=O)O)n(c13)CCCCOC2 (racemic) [Example 45, (rac)-1-(3-((2,3-dihydro-1H-inden-4-yl)oxy)propyl)-12-ethyl-13-fluoro-10-methyl-4,5,6,7,9,10-hexahydropyrazolo[4′,3′:9,10][1]oxa[6]azacycloundecino[8,7,6-hi]indole-2-carboxylic acid]
> 20 | CCc1c2c(nn1C)COCCCCn1c(C(=O)O)c(CCCOc3cccc4c3CCCC4)c3ccc(F)c-2c31 (racemic) [Example 29, (rac)-12-ethyl-13-fluoro-11-methyl-1-(3-((5,6,7,8-tetrahydronaphthalen-1-yl)oxy)propyl)-4,5,6,7,9,11-hexahydropyrazolo[4′,3′:9,10][1]oxa[6]azacycloundecino[8,7,6-hi]indole-2-carboxylic acid]
> 20 | Cc1nn(C)c2c1-c1c(F)ccc3c(CCCOc4cccc5cc(F)ccc45)c(C(=O)O)n(c13)CCCCOC2 (racemic) [Example 32, (rac)-13-fluoro-1-(3-((6-fluoronaphthalen-1-yl)oxy)propyl)-10,12-dimethyl-4,5,6,7,9,10-hexahydropyrazolo[4′,3′:9,10][1]oxa[6]azacycloundecino[8,7,6-hi]indole-2-carboxylic acid]
> 20 | Cc1cc(OCCCc2c(C(=O)O)n3c4c(c(F)ccc24)-c2c(nn(C)c2C)COCCCC3)cc(C)c1Cl (racemic) [Example 20, (rac)-1-(3-(4-chloro-3,5-dimethylphenoxy)propyl)-13-fluoro-11,12-dimethyl-4,5,6,7,9,11-hexahydropyrazolo[4′,3′:9,10][1]oxa[6]azacycloundecino[8,7,6-hi]indole-2-carboxylic acid]
